These results are taken from patent US4814455A, “Dihydro-3,5-dicarboxylates” (Bristol-Myers Company, priority 1986, dated 1989).

For one test, the target named is rat dorsal aorta (Rattus norvegicus, UniProt P22002). As to the kind of experiment: cell-based. The conditions noted are these: read-out: Calcium Entry Blockade (pA2) (converted). The text has this: Calcium ion entry blockade was studied in various smooth muscle systems such as rat dorsal aorta, portal vein, and trachea.
For test [1], the system named is globally ischemic rat myocardium. Put plainly: Autolysis: protection of high energy phosphate stores in globally ischemic rat myocardium. More on the design: Autolysis (% Protection): concentration or dose not given beside the values. The conditions noted are these: for Autolysis (% Protection): protection of high energy phosphate stores in globally ischemic rat myocardium.

Where [2] appears, read: pA2 = negative log of molar antagonist concentration giving dose ratio of 2, active if 7 or greater.

Counter-ions that a name gives are not always drawn. Like-named read-outs stand apart in the source and are kept apart here.

rat dorsal aorta, sequence (P22002 whole entry): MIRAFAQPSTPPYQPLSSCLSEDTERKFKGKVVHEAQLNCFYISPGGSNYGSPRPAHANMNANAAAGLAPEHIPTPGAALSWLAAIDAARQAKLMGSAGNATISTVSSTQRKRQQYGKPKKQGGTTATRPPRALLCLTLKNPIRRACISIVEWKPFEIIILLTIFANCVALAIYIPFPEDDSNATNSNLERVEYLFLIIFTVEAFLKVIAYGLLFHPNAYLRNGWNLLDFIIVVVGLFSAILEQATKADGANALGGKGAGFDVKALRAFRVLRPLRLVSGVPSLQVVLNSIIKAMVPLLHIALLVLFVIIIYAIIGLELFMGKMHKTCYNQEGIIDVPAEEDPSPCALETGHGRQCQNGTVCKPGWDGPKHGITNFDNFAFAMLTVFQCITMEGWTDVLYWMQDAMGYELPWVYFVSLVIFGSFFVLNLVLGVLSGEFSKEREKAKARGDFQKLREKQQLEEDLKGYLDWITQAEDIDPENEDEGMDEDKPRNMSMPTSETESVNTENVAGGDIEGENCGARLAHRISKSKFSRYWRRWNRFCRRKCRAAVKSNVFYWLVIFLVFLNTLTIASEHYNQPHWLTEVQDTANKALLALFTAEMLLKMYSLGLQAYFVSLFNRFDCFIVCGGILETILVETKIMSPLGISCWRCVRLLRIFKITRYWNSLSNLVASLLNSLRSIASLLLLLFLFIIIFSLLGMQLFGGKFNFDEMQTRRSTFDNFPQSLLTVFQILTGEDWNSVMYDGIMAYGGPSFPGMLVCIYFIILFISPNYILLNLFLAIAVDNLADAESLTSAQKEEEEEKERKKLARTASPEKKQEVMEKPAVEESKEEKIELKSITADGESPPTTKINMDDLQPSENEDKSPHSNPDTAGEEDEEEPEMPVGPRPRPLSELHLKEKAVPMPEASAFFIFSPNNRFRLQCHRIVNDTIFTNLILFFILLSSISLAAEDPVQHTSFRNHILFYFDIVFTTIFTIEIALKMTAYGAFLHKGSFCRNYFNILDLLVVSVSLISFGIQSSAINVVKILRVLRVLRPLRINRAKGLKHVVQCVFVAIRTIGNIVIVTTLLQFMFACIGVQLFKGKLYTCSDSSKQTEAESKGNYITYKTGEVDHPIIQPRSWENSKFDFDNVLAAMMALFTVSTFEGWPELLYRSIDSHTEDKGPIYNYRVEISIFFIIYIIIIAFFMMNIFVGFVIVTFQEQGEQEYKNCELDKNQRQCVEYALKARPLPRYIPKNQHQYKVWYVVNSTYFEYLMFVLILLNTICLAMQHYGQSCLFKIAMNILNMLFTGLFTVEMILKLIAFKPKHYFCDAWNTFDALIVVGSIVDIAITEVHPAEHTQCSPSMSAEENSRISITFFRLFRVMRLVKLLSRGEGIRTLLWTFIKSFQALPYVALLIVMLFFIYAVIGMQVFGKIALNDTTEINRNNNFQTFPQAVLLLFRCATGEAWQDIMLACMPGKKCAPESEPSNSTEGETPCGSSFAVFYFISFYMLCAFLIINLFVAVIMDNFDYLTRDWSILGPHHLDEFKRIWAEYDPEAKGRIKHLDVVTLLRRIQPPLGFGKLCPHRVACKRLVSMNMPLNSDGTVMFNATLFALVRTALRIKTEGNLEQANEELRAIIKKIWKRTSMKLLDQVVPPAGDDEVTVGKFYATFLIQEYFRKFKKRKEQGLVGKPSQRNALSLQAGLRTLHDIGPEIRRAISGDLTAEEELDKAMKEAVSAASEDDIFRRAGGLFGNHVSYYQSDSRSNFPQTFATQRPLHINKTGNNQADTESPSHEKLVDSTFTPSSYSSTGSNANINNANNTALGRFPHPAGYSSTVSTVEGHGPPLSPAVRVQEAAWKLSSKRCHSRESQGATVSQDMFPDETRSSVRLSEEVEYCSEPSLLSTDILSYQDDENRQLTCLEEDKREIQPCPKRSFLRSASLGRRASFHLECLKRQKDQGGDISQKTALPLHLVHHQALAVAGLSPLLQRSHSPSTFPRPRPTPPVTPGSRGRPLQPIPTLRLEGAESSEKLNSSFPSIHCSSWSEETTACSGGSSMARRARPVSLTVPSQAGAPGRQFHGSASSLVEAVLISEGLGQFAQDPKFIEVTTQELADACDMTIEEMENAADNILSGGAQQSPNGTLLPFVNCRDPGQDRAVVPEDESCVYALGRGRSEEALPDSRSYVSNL
rat dorsal aorta, sequence (P54290 25-944 partner limits assumed): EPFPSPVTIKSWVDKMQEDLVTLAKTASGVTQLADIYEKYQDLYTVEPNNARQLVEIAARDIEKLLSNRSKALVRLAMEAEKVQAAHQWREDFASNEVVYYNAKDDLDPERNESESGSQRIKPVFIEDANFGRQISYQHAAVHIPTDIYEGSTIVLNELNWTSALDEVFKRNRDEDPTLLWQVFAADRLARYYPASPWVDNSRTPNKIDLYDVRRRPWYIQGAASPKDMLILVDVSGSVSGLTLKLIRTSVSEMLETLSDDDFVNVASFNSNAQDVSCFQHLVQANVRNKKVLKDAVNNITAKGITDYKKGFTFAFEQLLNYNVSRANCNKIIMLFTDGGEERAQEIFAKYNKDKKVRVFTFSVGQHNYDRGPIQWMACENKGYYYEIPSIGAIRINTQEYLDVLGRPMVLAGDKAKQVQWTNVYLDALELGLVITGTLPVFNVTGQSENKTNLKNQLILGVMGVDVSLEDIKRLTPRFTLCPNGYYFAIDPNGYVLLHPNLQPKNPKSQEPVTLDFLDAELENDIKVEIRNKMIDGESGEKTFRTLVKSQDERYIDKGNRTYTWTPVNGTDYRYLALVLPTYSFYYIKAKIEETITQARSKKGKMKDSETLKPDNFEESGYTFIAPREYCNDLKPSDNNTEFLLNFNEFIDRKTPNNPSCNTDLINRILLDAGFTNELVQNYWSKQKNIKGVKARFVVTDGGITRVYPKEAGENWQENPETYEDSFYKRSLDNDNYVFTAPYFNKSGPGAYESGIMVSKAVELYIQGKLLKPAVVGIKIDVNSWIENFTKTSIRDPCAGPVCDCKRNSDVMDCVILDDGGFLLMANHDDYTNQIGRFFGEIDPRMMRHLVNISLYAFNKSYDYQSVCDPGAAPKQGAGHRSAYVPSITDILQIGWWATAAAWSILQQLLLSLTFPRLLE
rat dorsal aorta, sequence (P54290 945-1091 partner limits assumed): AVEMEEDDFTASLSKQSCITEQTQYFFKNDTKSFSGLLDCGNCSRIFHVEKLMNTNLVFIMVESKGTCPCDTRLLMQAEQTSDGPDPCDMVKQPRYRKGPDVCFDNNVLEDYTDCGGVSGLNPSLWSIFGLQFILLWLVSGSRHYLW

For `COC(=O)C1=C(C)NC(C)=C(C(=O)OCCCN(C)CCN(C)c2ccccc2)C1c1cccc([N+](=O)[O-])c1` (centres unmarked) [Example 36], at rat dorsal aorta (setting [2]), the Kb was 0.126 nM. For the same molecule, in test [1], the “Autolysis (% Protection)” value is reported as 12%.

`COC(=O)C1=C(C)NC(C)=C(C(=O)OC)C1c1ccccc1[N+](=O)[O-]` [Nifedipine, 4-(2'-nitrophenyl)-2,6-dimethyl-3,5-dicarbomethoxy-1,4-dihydropyridine, reference compound]: the “Autolysis (% Protection)” value in test [1] came to 21%.

With `COC(=O)C1=C(C)NC(C)=C(C(=O)OCCCN(CCN(C)c2ccccc2)Cc2ccccc2)C1c1cccc([N+](=O)[O-])c1` (centres unmarked) [Example 45, [3-[[[2-(N-Methyl-N-phenyl)amino]ethyl]-N'-phenylmethyl]propyl]Methyl 1,4-Dihydro-2,6-dimethyl-4-(3-nitrophenyl)-3,5-pyridinedicarboxylate Dihydrochloride Sesquihydrate], at rat dorsal aorta (setting [2]), the Kb is 0.794 nM.

As for `COC(=O)C1=C(C)NC(C)=C(C(=O)OCCCN(C)CCSc2ccc(C(C)(C)C)cc2C)C1c1cccc([N+](=O)[O-])c1` (centres unmarked) [Example 39], the Kb at rat dorsal aorta (setting [2]) is 14.5 nM. For the same molecule, in test [1], the “Autolysis (% Protection)” value is 51%.

For `COC(=O)C1=C(C)NC(C)=C(C(=O)OCCCN(C)CCNc2ccccc2)C1c1cccc([N+](=O)[O-])c1` (centres unmarked) [Example 37], the Kb at rat dorsal aorta (setting [2]) was 0.129 nM. Moreover, the “Autolysis (% Protection)” value in test [1] was 23%.

On to `COC(=O)C1=C(C)NC(C)=C(C(=O)OCCCN(C)CC[S+]([O-])c2ccccc2)C1c1cccc([N+](=O)[O-])c1` (centres unmarked) [Example 47, Methyl [3-[N-Methyl-N-[2-phenylsulfinyl)ethyl]amino]propyl] 1,4-Dihydro-2,6-dimethyl-4-(3-nitrophenyl)-3,5-pyridinedicarboxylate Hydrochloride Hydrate], for which the Kb at rat dorsal aorta (setting [2]) was 0.251 nM. For the same molecule, the “Autolysis (% Protection)” value in test [1] is recorded as 21%.

For the molecule `COC(=O)C1=C(C)NC(C)=C(C(=O)OCCCNCCOc2ccccc2)C1c1cccc([N+](=O)[O-])c1` (centres unmarked) [Example 35], the Kb at rat dorsal aorta (setting [2]) is 0.468 nM. Moreover, in test [1], the “Autolysis (% Protection)” value is on record as 21%.

For `COC(=O)C1=C(C)NC(C)=C(C(=O)OCCCNCCNc2ccccc2)C1c1cccc([N+](=O)[O-])c1` (centres unmarked) [Example 32], the Kb on rat dorsal aorta (setting [2]) is 2.95 nM. The “Autolysis (% Protection)” value in test [1] is recorded as 0%.

With `COC(=O)C1=C(C)NC(C)=C(C(=O)OCCCN(C)CCSc2ccccc2)C1c1cccc([N+](=O)[O-])c1.Cl` (centres unmarked) [Example 34, Methyl [3-[N-Methyl-N-[2-(phenylthio)ethyl]amino]propyl] 1,4-Dihydro-2,6-dimethyl-4-(3-nitrophenyl)-3,5-pyridinedicarboxylate Hydrochloride], on rat dorsal aorta ([…], active if 7 or greater), the Kb is 0.126 nM. Also, in test [1], the “Autolysis (% Protection)” value is 43%.

`COC(=O)C1=C(C)NC(C)=C(C(=O)OCCCNCCc2c[nH]c3ccccc23)C1c1cccc([N+](=O)[O-])c1` (centres unmarked) [Example 33]: at rat dorsal aorta (setting [2]), the Kb was 0.0316 nM. Further, the “Autolysis (% Protection)” value in test [1] was determined as 35%.

With `COC(=O)C1=C(C)NC(C)=C(C(=O)OCCCN(CCSc2ccccc2)Cc2ccccc2)C1c1cccc([N+](=O)[O-])c1.Cl` (centres unmarked) [Example 46, Methyl [3-[N-(Phenylmethyl)-N-[2-(phenylthio)ethyl]amino]propyl] 1,4-Dihydro-2,6-dimethyl-4-(3-nitrophenyl)-3,5-pyridinedicarboxylate Hydrochloride], the Kb on rat dorsal aorta ([…], active if 7 or greater) is 5.62 nM. Further, the “Autolysis (% Protection)” value in test [1] is given as 3%.

Consider `COC(=O)C1=C(C)NC(C)=C(C(=O)OCCCN(C)CCN(Cc2ccccc2)c2ccccc2)C1c1cccc([N+](=O)[O-])c1` (centres unmarked) [Example 38], for which the “Autolysis (% Protection)” value in test [1] is 16%.

`COC(=O)C1=C(C)NC(C)=C(C(=O)OCCCN(CCSc2ccccc2)CCSc2ccccc2)C1c1cccc([N+](=O)[O-])c1` (centres unmarked) [Example 43]: the Kb on rat dorsal aorta (setting [2]) is 2.4 nM. In addition, the “Autolysis (% Protection)” value in test [1] was 2%.

For the molecule `COC(=O)C1=C(C)NC(C)=C(C(=O)OCCCNCCSc2ccccc2)C1c1cccc([N+](=O)[O-])c1` (centres unmarked) [Example 42], on rat dorsal aorta (setting [2]), the Kb is 8.32 nM.

Consider `COC(=O)C1=C(C)NC(C)=C(C(=O)OCCCN(C)CCSc2ccccc2OC)C1c1cccc([N+](=O)[O-])c1` (centres unmarked) [Example 41], for which the Kb on rat dorsal aorta (setting [2]) is 2.75 nM.

Turning to `COC(=O)C1=C(C)NC(C)=C(C(=O)OCCCN(C)CCCSc2ccccc2)C1c1cccc([N+](=O)[O-])c1` (centres unmarked) [Example 40], the Kb on rat dorsal aorta (setting [2]) is 3.63 nM. Further, the “Autolysis (% Protection)” value in test [1] was 23%.

For the molecule `COC(=O)C1=C(C)NC(C)=C(C(=O)OCCN(C)Cc2ccccc2)C1c1cccc([N+](=O)[O-])c1` (centres unmarked) [Nicardipine, reference compound], the Kb at rat dorsal aorta (setting [2]) was 1.12 nM. Moreover, the “anti-ischemia action / protection against autolysis caused by ischemia” value in test [1] (in words, in vitro and in vivo laboratory tests) is recorded as “fails to provide any protection against autolysis caused by ischemia”. The “Autolysis (% Protection)” value in test [1] was 0%.

On to `CCCCN(CCCOC(=O)C1=C(C)NC(C)=C(C(=O)OC)C1c1cccc([N+](=O)[O-])c1)CCOc1ccccc1` (centres unmarked) [Example 44, [3-[[N-Butyl-N-(2-phenoxyethyl)]amino]propyl]Methyl 1,4-Dihydro-2,6-dimethyl-4-(3-nitrophenyl)-3,5-pyridinedicarboxylate Hydrochloride Hemihydrate], for which the Kb at rat dorsal aorta (setting [2]) is 0.933 nM. Also, the “Autolysis (% Protection)” value in test [1] is listed as 16%.
